{"source": "patent US6468969B1", "about": "“Inhibition of HIV-1 replication using d-amino acid peptides” (priority 1997, dated 2002)", "target": "proteinase K (Parengyodontium album, UniProt P06873)", "sequence (P06873 106-384)": "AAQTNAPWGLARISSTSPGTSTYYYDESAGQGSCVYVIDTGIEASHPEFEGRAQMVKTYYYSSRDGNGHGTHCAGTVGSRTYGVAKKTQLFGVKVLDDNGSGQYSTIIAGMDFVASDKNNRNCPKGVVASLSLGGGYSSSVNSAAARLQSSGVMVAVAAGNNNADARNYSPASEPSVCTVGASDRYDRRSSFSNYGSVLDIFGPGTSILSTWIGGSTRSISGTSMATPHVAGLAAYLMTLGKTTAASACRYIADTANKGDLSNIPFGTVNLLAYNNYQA", "test": "Proteinase K digestion of peptide-TAR RNA photocrosslink products", "settings": "very vigorous proteinase K digestion", "procedure": "For photochemical reactions, RNA duplex was prepared by hybridizing two strands ^24. Strand 1 of the duplex was 5′-end labeled with ^32P. Preformed RNA duplexes(0.02 μM) in the absence or presence of the peptide (0.1 μM) were irradiated ([…]) and analyzed by denaturing gels as described in Wang et al., Biochemistry 35, 6491-6499 (1996)."}
{"smiles": "CC[C@@H](C)[C@@H](NC(=O)CNC(=O)[C@@H](CC(C)C)NC(=O)[C@@H](C)NC(=O)[C@@H](CCCCN)NC(=O)[C@H](NC(=O)[C@H](NC(=O)[C@@H](Cc1ccccc1)NC(=O)[C@H](N)CS)[C@H](C)O)[C@H](C)O)C(=O)N[C@H](CO)C(=O)N[C@H](Cc1ccc(O)cc1)C(=O)NCC(=O)N[C@H](CCCNC(=N)N)C(=O)N[C@H](CCCCN)C(=O)N[C@H](CCCCN)C(=O)N[C@H](CCCNC(=N)N)C(=O)N[C@H](CCCNC(=N)N)C(=O)N[C@H](CCC(N)=O)C(=O)N[C@H](CCCNC(=N)N)C(=O)N[C@H](CCCNC(=N)N)C(=O)N[C@H](CCCNC(=N)N)C(=O)N1CCC[C@@H]1C(=O)N1CCC[C@@H]1C(=O)N[C@H](CCC(N)=O)C(=O)NCC(=O)N[C@H](CO)C(=O)N[C@H](CCC(N)=O)C(=O)N[C@@H](C(=O)N[C@H](Cc1c[nH]cn1)C(=O)N[C@H](CCC(N)=O)C(=O)N[C@@H](C(=O)N[C@H](CO)C(=O)N[C@H](CC(C)C)C(=O)N[C@H](CO)C(=O)N[C@H](CCCCN)C(=O)N[C@H](CCC(N)=O)C(=O)O)C(C)C)[C@H](C)O", "note": "[D-Tat (37-72) peptide, D-Cys-D-Phe-D-Thr-D-Thr-D-Lys-D-Ala-D-Leu-D-Gly-D-Ile-D-Ser-D-Tyr-D-Gly-D-Arg-D-Lys-D-Lys-D-Arg-D-Arg-D-Gln-D-Arg-D-Arg-D-Arg-D-Pro-D-Pro-D-Gln-D-Gly-D-Ser-D-Gln-D-Thr-D-His-D-Gln-D-Val-D-Ser-D-Leu-D-Ser-D-Lys-D-Gln]", "values": [{"measurement": "protease stability of peptide-RNA crosslink products", "value": "completely stable"}]}
